The source of these data is ChEMBL document CHEMBL5214898 (J Med Chem, 2021).

For orientation: Tmax means the time at which the peak concentration occurs. As usually defined, the Cmax is the peak of the concentration-time curve. The clearance is the volume of plasma or blood freed of the substance per unit of time. Low values mean inefficient removal, high ones efficient removal. As a reminder, the AUC is concentration integrated over time. The bioavailability is the share of a dose that reaches the circulation, judged against a reference dose that is usually intravenous. Low values mean poor availability, high ones good availability. The half-life is the time needed for the level to fall by half in the phase considered. A higher half-life goes with slow loss.

The nature of series [1]: Tmax in Wistar Han rat plasma 10 mg/kg, po measured for 15 to 1440 mins by LC-MS/MS analysis. The class given is ADME, organism-based. As to conditions: time 15-1440 min.
Series [2] is described as follows: Cmax in Wistar Han rat plasma 10 mg/kg, po measured for 15 to 1440 mins by LC-MS/MS analysis. It is filed as ADME, organism-based.
A short description of series [3]: Drug uptake in Wistar Han rat plasma 10 mg/kg, po measured after 24 hrs mins by LC-MS/MS analysis. It is filed as ADME, organism-based.
Series [4] can be described thus: Clearance in Wistar Han rat plasma 2 mg/kg, iv measured for 2 to 1440 mins by LC-MS/MS analysis. It is filed as ADME, organism-based. As to conditions: time 2-1440 min.
The nature of series [5]: AUC in Wistar Han rat plasma 10 mg/kg, po measured for 15 to 1440 mins by LC-MS/MS analysis. It is filed as ADME, organism-based.
The nature of series [6]: Oral bioavailability in Wistar Han rat plasma 10 mg/kg measured for 15 to 1440 mins by LC-MS/MS analysis relative to control. As to conditions: time 15-1440 min. The class given is ADME, organism-based.
Series [7] can be described thus: Half life in Wistar Han rat plasma 2 mg/kg, iv by LC-MS/MS analysis. It is filed as ADME, organism-based.
Series [8] in a line: Drug uptake in rat assessed as unbound concentration at 10 mg/kg measured after 24 hrs. As to conditions: in vivo. It is filed as ADME, organism-based.
Series [9] in a line: Drug uptake in rat at 10 mg/kg measured after 24 hrs. It is filed as ADME, organism-based. Particulars: in vivo, read-out: Drug uptake.
Series [10] can be described thus: Cmax in rat at 10 mg/kg. It is filed as ADME, organism-based. Further details: dose 10 mg/kg. As to conditions: in vivo.
Series [11] is described as follows: Unbound Cmax in rat at 10 mg/kg. It is filed as ADME, organism-based. Particulars: in vivo.
The nature of series [12]: AUC in Beagle dog plasma 2 mg/kg, po measured for 15 to 1440 mins by LC-MS/MS analysis. It is filed as ADME, organism-based, Canis lupus familiaris.
Series [13] can be described thus: Half life in Beagle dog plasma 1 mg/kg, iv by LC-MS/MS analysis. The class given is ADME, organism-based, Canis lupus familiaris.
Series [14] can be described thus: Tmax in Beagle dog plasma 2 mg/kg, po measured for 15 to 1440 mins by LC-MS/MS analysis. It is filed as ADME, organism-based, Canis lupus familiaris. As to conditions: time 15-1440 min.
Series [15] in a line: Clearance in Beagle dog plasma 1 mg/kg, iv measured for 2 to 1440 mins by LC-MS/MS analysis. Particulars: time 2-1440 min. It is filed as ADME, organism-based, Canis lupus familiaris.
The nature of series [16]: Oral bioavailability in Beagle dog plasma 2 mg/kg measured for 15 to 1440 mins by LC-MS/MS analysis relative to control. The class given is ADME, organism-based, Canis lupus familiaris. Particulars: time 15-1440 min.
Series [17] can be described thus: Cmax in Beagle dog plasma 2 mg/kg, po measured for 15 to 1440 mins by LC-MS/MS analysis. It is filed as ADME, organism-based, Canis lupus familiaris.
Series [18] in a line: Drug uptake in Beagle dog plasma 2 mg/kg, po measured after 24 hrs mins by LC-MS/MS analysis. The class given is ADME, organism-based, Canis lupus familiaris.

Molecules are shown by their SMILES.

On to `CCC(=O)CCCCC[C@H](NC(=O)[C@H]1CC12CCN(CC)CC2)c1ncc(-c2cc3cccnc3nc2OC)o1`, for which the Tmax in series [1] is 3 h. The maximum concentration (Cmax) in [2] stood at 2100 nM. Besides, the concentration at 24 h in series [3] was 9.2 nM. The clearance in series [4] was 6 mL/min/kg. For the same compound, in [5], the AUC worked out at 9.7 µM·h. In addition, the bioavailability in series [6] was found to be 20%. Also, the half-life in series [7] is 3.9 h.
Take `CCC(=O)CCCCC[C@H](NC(=O)[C@H]1CC12CCN(C)CC2)c1ncc(-c2ccc3nc(C)ccc3c2)[nH]1`: the Tmax in series [1] was 0.3 h. Further, in [2], the peak level (Cmax) was 4 nM. The compound further registered a clearance in [4] of 45 mL/min/kg. Also, in series [5], the AUC is 0.01 µM·h. Besides, the bioavailability in series [6] was 0.1%. In series [7], this compound had a half-life of 2.9 h.
Take `CCC(=O)CCCCC[C@H](NC(=O)[C@H]1CC12CCN(C)CC2)c1ncc(-c2cc3ccc(C)nc3cc2F)o1`: in [1], the Tmax was determined as 2 h. The compound also showed a Cmax in series [2] of 63 nM. This compound came in with a concentration at 24 h in series [3] of 1 nM. In addition, the clearance in series [4] is 71 mL/min/kg. In addition, the AUC in [5] was found to be 0.3 µM·h. In series [6], this compound displayed a bioavailability of 6.9%. In series [7], this compound showed a half-life of 1.9 h.
Turning to `CCC(=O)CCCCC[C@H](NC(=O)[C@H]1CC12CCN(C)CC2)c1ncc(-c2cc3ccc(C)nc3cc2OC)[nH]1`, the time of peak concentration (Tmax) in series [1] stood at 5 h. In addition, the highest level in [2] (Cmax) was 170 nM. In series [3], this compound had a concentration at 24 h of 8.9 nM. In addition, in series [4], the clearance turned out to be 12 mL/min/kg. The compound also registered an AUC in series [5] of 0.98 µM·h. This compound also registered a bioavailability in [6] of 2.5%. This compound also gave a half-life in [7] of 33 h.
On to `CCC(=O)CCCCC[C@H](NC(=O)[C@H]1CC12CCN(C)CC2)c1ncc(-c2cc3ccccc3nc2OC)[nH]1`, for which, in series [8], the “Drug uptake(free)” value stood at 0.11 nM. Besides, the concentration at 24 h in series [9] worked out at 9 nM. The same compound had a Cmax in [10] of 627 nM. Moreover, the fCmax in [11] is 7.5 nM.
As to `CCC(=O)CCCCC[C@H](NC(=O)[C@H]1CC12CCN(C(C)C)CC2)c1ncc(-c2cc3ccc(C)nc3cc2OC)[nH]1`, the Tmax in series [1] came out at 2.1 h. The compound also came in with a Cmax in series [2] of 9 nM. The concentration at 24 h in [3] was 1 nM. Also, the clearance in series [4] was 60 mL/min/kg. In addition, in series [5], the area under the curve (AUC) was determined as 0.02 µM·h. The compound also had a bioavailability in series [6] of 0.6%. Also, the half-life in series [7] was 24 h.
As to `CCC(=O)CCCCC[C@H](NC(=O)[C@H]1CC12CCN(C)CC2)c1ncc(-c2cc3ccc(C)nc3cc2OC)o1`, the AUC in [12] amounted to 0.57 µM·h; in [5], 10 µM·h. Moreover, the half-life in [13] is 43 h; in [7], 4.8 h. The values for the Tmax in [1] and in series [14] were 4 h and 3 h, respectively. The Cmax was 2500 nM in series [2] and 72 nM in [17]. Also, the concentration at 24 h in series [3] turned out to be 28 nM; in series [18], 3.3 nM. For the same compound, the clearance in [4] was 25 mL/min/kg; in series [15], 6 mL/min/kg. Further, the values for the bioavailability in series [16] and in series [6] were 42% and 78%, respectively.
In the case of `CCC(=O)CCCCC[C@H](NC(=O)[C@H]1CC12CCN(C)CC2)c1ncc(-c2cc3cccnc3cc2OC)[nH]1`, in series [1], the Tmax is 2.1 h. Moreover, in series [2], the peak level (Cmax) was 20 nM. In [3], the concentration at 24 h stood at 1 nM. In [4], this compound displayed a clearance of 61 mL/min/kg. The compound also registered an AUC in series [5] of 0.06 µM·h. In [6], this compound gave a bioavailability of 2%. In [7], this compound showed a half-life of 9.5 h.
Consider `CCC(=O)CCCCC[C@H](NC(=O)[C@H]1CC12CCN(CC)CC2)c1ncc(-c2cc3ccc(C)nc3cc2OC)[nH]1`, for which the AUC in [12] stood at 0.1 µM·h; in series [5], 0.47 µM·h. Moreover, the half-life is 19 h in [13] and 13 h in series [7]. In addition, the Tmax in series [1] stood at 2.1 h; in series [14], 1.3 h. Besides, the maximum concentration (Cmax) in [2] worked out at 97 nM; in series [17], 26 nM. Further, the concentration at 24 h in [3] amounted to 3.2 nM; in series [18], 1.2 nM. In addition, the clearance in series [4] worked out at 51 mL/min/kg; in series [15], 24 mL/min/kg. The bioavailability was found to be 4.1% in series [16] and 7.9% in series [6].
On to `CCC(=O)CCCCC[C@H](NC(=O)[C@H]1CC12CCN(CC)CC2)c1ncc(-c2cc3ccc(C)nc3cc2OC)o1`, for which the area under the curve (AUC) turned out to be 0.07 µM·h in series [12] and 1.1 µM·h in [5]. In addition, the half-life was 91 h in series [13] and 5.4 h in series [7]. The Tmax in [1] is 5 h; in series [14], 3 h. Further, the figures for the Cmax in series [2] and in [17] were 150 nM and 15 nM, respectively. Further, the concentration at 24 h in series [3] stood at 7.2 nM; in series [18], 2 nM. Moreover, the clearance in series [4] stood at 65 mL/min/kg; in [15], 2.9 mL/min/kg. The bioavailability in series [16] stood at 11%; in series [6] it was 25%.
Regarding `CCC(=O)CCCCC[C@H](NC(=O)[C@H]1CC12CCN(CC)CC2)c1ncc(-c2cc3ccn(CC)c(=O)c3cc2OC)o1`, the time of peak concentration (Tmax) in series [1] turned out to be 5 h. This compound gave a Cmax in series [2] of 120 nM. For the same compound, the concentration at 24 h in series [3] is 2.2 nM. Moreover, the clearance in [4] amounted to 100 mL/min/kg. Besides, in series [5], the AUC was determined as 0.6 µM·h. Moreover, the bioavailability in series [6] is 22%. In series [7], this compound had a half-life of 6.5 h.
Regarding `CCC(=O)CCCCC[C@H](NC(=O)[C@H]1CC12CCN(CC)CC2)c1ncc(-c2cc3cn(C)nc3cc2OC)o1`, the Tmax in series [1] turned out to be 4 h. For the same compound, the maximum concentration (Cmax) in [2] turned out to be 510 nM. This compound also displayed a concentration at 24 h in series [3] of 3.6 nM. For the same compound, the clearance in [4] was 49 mL/min/kg. In series [5], this compound gave an AUC of 2.3 µM·h. Moreover, in series [6], the bioavailability is 37%. The compound further had a half-life in series [7] of 5.1 h.
